Laboratory results reported in US20110269790A1, “NOVEL THIENOPYRIDINES AS PHARMACOLOGICALLY ACTIVE AGENTS” (priority 2009, published 2011).

Tested on: mice
Experiment: Acute oral toxicity, sighting study in mice
Assay type: in vivo, mouse
Conditions: 2000 mg/kg in mice
Protocol: In the series of thioenopyridine derivatives compounds BN-4, BN-14 and BN-16 show good antiinflammatory potential in all models tested. […] Acute Oral Toxicity Study was conducted following OECD guidelines by fixed dose method adopted by OECD (420). The study involved preliminary sighting using small number of animals in order to derive the dose effect relation for toxicity and mortality and to provide information on dose selection for the main study.
In the preliminary sighting study, the effect of various dosed administered to single animals of each sex was investigated in a sequential manner. The sighting study generally yields information on the dose-toxicity relationship including an estimate of the minimum lethal dose. In the main study, the test article is administered to groups of 5 males and 5 female animals at one of the fixed doses (5, 50, 500 and 2000 mg/Kg). The dose is derived from the sighting study. It is immediately below that which is expected to result in mortality. If evident toxicity is not seen at the chosen dose level, the substance should be retested at the next higher dose level. If at the initial dose level, animals die, or a severe toxicity reaction requires removal of animals from the study for animal welfare reasons, the substance is retested at the next lower dose level. […]

`Nc1c2c(nc3sc4c(c13)CCC4)CCCC2` [BN-14, 2,3,6,7,8,9-Hexahydro-1H-cyclopenta[4,5]thieno[2,3-b]quinolin-10-amine] was tested, and the “Toxicity, sighting study” value was “toxic”.
